Experimental data published in article PMC10417336 (Animals : an Open Access Journal from MDPI, 2023).
Several values for one entry are separate records, joined by “and”; a condition that tells them apart may be missing. Equal entries are not always repeated. Where two headings read alike, the source gives them in different places.

Experiments:
[1] = system: lambari (Astyanax bimaculatus); conditions: for T1/2, half-life time: t1/2=ln2/Ke
Experimental: The feed used in the experiment was purchased commercially and contained 45% protein (GuabiTech, Campinas, SP, Brazil). The amount of ^14C SDZ (Sigma-Aldrich; Saint Louis, MO, USA, Hen- 5154X Riedel) used in the experiment was the one that gave the lowest reading signal in the liquid scintillation spectrometer. Thus, the amount of feed per fish was the equivalent of 1% of body weight, 12 mg·day^−1, totaling 3528 mg of feed contaminated with 5540.38 Bq of radioactive product. The feed was homogenized after the application of the ^14C SDZ to ensure that all of the drug was evenly distributed in the feed. For confirmation, seven 50 mg samples of contaminated feed were used for the liquid scintillation spectrometer reading.
The bioaccumulation and depletion study using lambari was conducted to evaluate how the elimination of the SDZ molecule works after treatment. The experiment was performed based on the guidelines of the Organization for Economic Cooperation and Development standard no. 305 [17] and VICH-FDA [18], with adaptations for the use of radiolabeled molecules.
The lambari fingerlings were acquired from a commercial fish farm, without distinction between male and female. A total of 100 healthy fish were placed in a tank with 200 L of (chlorine-free) water. The acclimatization took place over 15 days, during which the fish were fed three times daily with commercial fish food. The water temperature was maintained at 25 °C ± 1 °C and pH 7. Feeding of the fry was stopped 24 h before the experiment.
The tests were divided into two stages, seven days of exposure and seven days of depuration. After the acclimatization process, 84 fish (approximately 5 cm long and weighing approximately 1.0 to 1.4 g) were used in the experiment. The experiment was conducted in 8 L stainless steel tanks with three replicates and two controls, with 14 fish placed in each tank. The water temperature was maintained at 25 °C ± 1 °C, pH 7, under permanent aeration, with a 12 h photoperiod. Water temperature and pH were analyzed daily.
The exposure phase of the fish to the antibiotic lasted 7 consecutive days, during which the medicated feed was offered three times a day. Control fish were fed uncontaminated feed. For the depletion phase, the remaining lambaris were transferred to clean tanks with 4 L of water and fed uncontaminated feed three times a day. It is worth noting that one fish was randomly selected and sampled during the exposure (days 1, 2, 3, 4, 5, 6, and 7) and depletion (8, 9, 10, 11, 12, 13, and 14) periods of each tank; the selected lambari was euthanized with a 0.2 mg.mL^−1 benzocaine immersion bath and frozen for later analysis.
Fish samples were burned in the Oxidizer OX500 (RJ—Harvey Instrument Corporation, Buffalo, NY, USA) in an oxygen-rich atmosphere, where 10 mL of scintillation liquid (permafluor) was used per sample. Measurement was by liquid scintillation counting (LSC) with a Tri-Carb 2910 TR LSA counter (Perkin Elmer, Waltham, MA, USA).
On day 7 (the last day of bioaccumulation) and day 14 (the last day of depletion), the aquarium water was filtered through filter paper (Whatman 42) to collect background material (metabolic excrement). The analyses of the excreta were conducted in the same way as the procedures described for fish. In addition, water samples from each aquarium were sampled in triplicate at the exposure phase (beginning and end) to determine the radiolabeled molecule, using liquid scintillation counters (LSC) with a Tri-Carb 2910 TR LSA counter (Perkin Elmer).

[2] = system: sea cucumbers (Apostichopus japonicus); conditions: cited from earlier work
Danio rerio = conditions: listed as SDZ; cited from earlier work
[3] = system: common carp (Cyprinus carpio); conditions: cited from earlier work
[4] = system: rainbow trout (Oncorhynchus mykiss); conditions: cited from earlier work
[5] = Table 1, source not given; cited from earlier work

With Nc1ccc(S(=O)(=O)Nc2ncccn2)cc1 [Sulfadiazine, 4-Amino-N-(2-pyrimidinyl)benzenesulfonamide] the “accumulated SDZ eliminated by the organisms” value ([1]; after two days of the depletion phase (7–9 days)) was 93.12%, the “ke, elimination constant” value ([1]; column Bioaccumulation, model fit) was 0.3956 day⁻¹ and the “A, pre-exponential term” value ([1]; column Depletion, model fit) was 186.2 ng/g. The “ku, absorption constant” value ([1]; column Depletion, model fit) was 0.6155 mL/g/day, the “T1/2, half-life time” value ([1]; column Depletion, listed as 14C-sulfadiazine) was 27.02 h and the “T1/2, half-life time” value ([1]; column Depletion, listed as SDZ) was 27.1 h. For the same molecule, the “maximum (peak) concentration of SDZ in fish” value ([1]; day 7 of exposure, medicated feed 2.5 mg·g^−1 three times a day, listed as SDZ) was 91.7 ng/g and 91.72 ng/g, the “concentration of SDZ in fish after depletion phase” value ([1]; day 13, end of experiment) was 0.83 ng/g and the “accumulated 14C-SDZ eliminated by the fish” value ([1]; depletion phase period (7–13 days)) was 93.12%. For the same molecule, the “concentration of SDZ in excreta in the depletion period” value ([1]; depletion, abstract) was 5.96 ng/g, the “concentration of SDZ in fish relative to the MRL” value ([1]; during exposure (bioaccumulation) and elimination (depletion) phases) was under 100 ng/g and the “concentration of SDZ in excreta (sediment), elimination (depletion) phase” value ([1]; elimination 7–13 days) was 5.9e-06 mg/g. The “concentration of SDZ in the water, depletion phase” value ([1]; elimination 7–13 days) was 0.025 ng/mL, the “concentration of SDZ in excreta after the bioaccumulation period” value ([1]; end of exposure phase, abstract) was 363.5 ng/g and the “concentration of SDZ in excreta (sediment), exposure phase (Bioaccumulation)” value ([1]; exposure 1–7 days) was 0.00036 mg/g. The “concentration of SDZ in the water, end of exposure phase (Bioaccumulation)” value ([1]; exposure 1–7 days) was 4.6 ng/mL, the “bioconcentration factor (BCF)” value ([1]; lambari, BCF=Ca/Cw) was 20 L/kg and the “SDZ applied in the diet bioaccumulated in the fish (mass balance)” value ([1]; mass balance) was 0.21%. For the same molecule, the “SDZ applied in the diet remaining in the excreta (mass balance)” value ([1]; mass balance) was 0.69%, the “SDZ applied in the diet remaining in the water (mass balance)” value ([1]; mass balance) was 115% and the BCF [2] was 2.1 to 891.5 L/kg. For the same molecule, the “bioaccumulated amount of SDZ” value (Danio rerio) was 4.15 Bq and 5.41 Bq, the “eliminated amount of SDZ” value (Danio rerio) was 3.79 Bq and 5.21 Bq and the BCF [3] was 2.73 to 165.73 L/kg. The BCF [4] was 4100 L/kg, the “concentration of SDZ in the organisms on the seventh day of depletion” value [4] was 1.0 × 10^−4 mg·g ^−1 and the “highest accumulation of SDZ in the organisms” value ([4]; day 4, SDZ fed in the diet 0.0330 μg·mg^−1) was 5.10 × 10 ^−4 mg·g^−1. The “Log P” value [5] was −0.09.
